# Data as given in US12624044B2, “SMARCA degraders and uses thereof” (Kymera Therapeutics, Inc., priority 2019, dated 2026).
# Assays:
# SMARCA4 = biological target: T1, SMARCA4 (Homo sapiens, UniProt P51532); assay: SMARCA4 Western blot MV4-11 degradation; format: cell-based; settings: 24 h; for Dmax: MV4-11, MV4-11 cells, read-out: SMARCA4 WB MV411 degradation 24 h: Average Dmax %; for DC50: MV4-11 cells, read-out: SMARCA4 WB MV411 degradation 24 h: Average external-Abs DC50
# T1 construct: SMARCA2 and SMARCA4 protein degradation in MV4-11 cells; endogenous in cells; host or cells: MV4-11
# Method: Cells were seeded into 6-well plates (MV4-11: 4×10^6 cells/well/1 ml) and 1 ml of 2× compound solution was added into the well to make the final concentration and the plates were mixed well and incubated for 24 hours (No cytotoxicity was observed). The cell were collected with media and spun at 3000 rpm for 5 minutes. The supernatant was aspirated and the well and the cells were washed with cold PBS once and combined for centrifugation again; the supernatant aspirated again. 200 ul pre-chilled RIPAlysis buffer (Boston BioProducts BP-115D) with protease/phosphatase inhibitor (Roche 05892791001/Roche 04906837001) was directly added into the tube to lyze the cells for 20 minutes on ice. The cell lysate were collected into EP tubes and spun at 13000 rpm for 20 minutes and 72 ul supernatant was transferred to a fresh EP tube containing 18 ul of 5× loading buffer (Beyotime Bio P0015) to make the loading samples. The samples were heated to 100° C. for 10 minutes and cooled to RT and microcentrifuged. 20 ul of samples were loaded onto SDS-PAGE gel (Novex, WG1402BOX) and the gel was run at 80 V for 20 minutes and 120 V for 1.5 hours. The samples were electrotransfer to a NC membrane using wet-transfer method with 250 mA for 2.5 hours. The membrane was blocked with LICOR blocking buffer (LI-COR, 927-50000) for 1 hour. The membrane was washed three times with TBST (CST #9997S), 5 minutes each. Incubation was performed with primary antibody prepared in blocking buffer with 0.1% Tween-20 (Solarbio, P8220) at 4° C. overnight (Anti-SMARCA2/BRM antibody (ab15597) 1:500; Anti-BRG1 antibody [EPR3912] (ab108318) 1:1000; Rabbit anti-Baf180 antibody [EPR15860] (Abcam, ab196022) 1:1000; mouse anti-beta-Actin (8H10D10) (CST #3700) 1:10000). The membrane was washed three times with TBST, 5 minutes each. Incubation with secondary antibody was performed for 1 hour at RT (anti-rabbit IgG (Licor, 926-32211) 1:5000; anti-mouse IgG (LI-COR, 926-68070) 1:5000). The membrane was washed three times with TBST, 5 minutes each and lastly the LiCOR was read.
# The letter codes for the percentage of SMARCA degradation after 24 hours (Dmax %) include: A (>90% degradation), B (>70-90% degradation), C (50-70% degradation), and D (<50% degradation).
# SMARCA2 = SMARCA2 (Homo sapiens, UniProt P51531); assay: MSD SMARCA2 degradation in NCI-H1299 cell line (24 h); format: cell-based; design: HC: NCI-H1299 cells treated with DMSO; host or cells: NCI-H1299; settings: for Dmax: NCI-H1299, NCI-H1299 cells; for DC50: NCI-H1299 cells, read-out: SMARCA2 MSD H1299 degradation 24 h: External Abs-DC50
# Summary of the method: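 NCI-H1299 cells treated 24 h with a 3-fold, 9-point compound dilution series, then lysed in RIPA with protease inhibitor. SMARCA2 in lysate-coated MSD plates detected with rabbit anti-SMARCA2 (0.3 ug/ml) and SULFO-TAG secondary. Relative SMARCA2 level normalized between DMSO-treated H1299 cells and SMARCA2-negative A2780 cells; Dmax % binned A–D.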
# Sequence of SMARCA2 (P51531 whole entry): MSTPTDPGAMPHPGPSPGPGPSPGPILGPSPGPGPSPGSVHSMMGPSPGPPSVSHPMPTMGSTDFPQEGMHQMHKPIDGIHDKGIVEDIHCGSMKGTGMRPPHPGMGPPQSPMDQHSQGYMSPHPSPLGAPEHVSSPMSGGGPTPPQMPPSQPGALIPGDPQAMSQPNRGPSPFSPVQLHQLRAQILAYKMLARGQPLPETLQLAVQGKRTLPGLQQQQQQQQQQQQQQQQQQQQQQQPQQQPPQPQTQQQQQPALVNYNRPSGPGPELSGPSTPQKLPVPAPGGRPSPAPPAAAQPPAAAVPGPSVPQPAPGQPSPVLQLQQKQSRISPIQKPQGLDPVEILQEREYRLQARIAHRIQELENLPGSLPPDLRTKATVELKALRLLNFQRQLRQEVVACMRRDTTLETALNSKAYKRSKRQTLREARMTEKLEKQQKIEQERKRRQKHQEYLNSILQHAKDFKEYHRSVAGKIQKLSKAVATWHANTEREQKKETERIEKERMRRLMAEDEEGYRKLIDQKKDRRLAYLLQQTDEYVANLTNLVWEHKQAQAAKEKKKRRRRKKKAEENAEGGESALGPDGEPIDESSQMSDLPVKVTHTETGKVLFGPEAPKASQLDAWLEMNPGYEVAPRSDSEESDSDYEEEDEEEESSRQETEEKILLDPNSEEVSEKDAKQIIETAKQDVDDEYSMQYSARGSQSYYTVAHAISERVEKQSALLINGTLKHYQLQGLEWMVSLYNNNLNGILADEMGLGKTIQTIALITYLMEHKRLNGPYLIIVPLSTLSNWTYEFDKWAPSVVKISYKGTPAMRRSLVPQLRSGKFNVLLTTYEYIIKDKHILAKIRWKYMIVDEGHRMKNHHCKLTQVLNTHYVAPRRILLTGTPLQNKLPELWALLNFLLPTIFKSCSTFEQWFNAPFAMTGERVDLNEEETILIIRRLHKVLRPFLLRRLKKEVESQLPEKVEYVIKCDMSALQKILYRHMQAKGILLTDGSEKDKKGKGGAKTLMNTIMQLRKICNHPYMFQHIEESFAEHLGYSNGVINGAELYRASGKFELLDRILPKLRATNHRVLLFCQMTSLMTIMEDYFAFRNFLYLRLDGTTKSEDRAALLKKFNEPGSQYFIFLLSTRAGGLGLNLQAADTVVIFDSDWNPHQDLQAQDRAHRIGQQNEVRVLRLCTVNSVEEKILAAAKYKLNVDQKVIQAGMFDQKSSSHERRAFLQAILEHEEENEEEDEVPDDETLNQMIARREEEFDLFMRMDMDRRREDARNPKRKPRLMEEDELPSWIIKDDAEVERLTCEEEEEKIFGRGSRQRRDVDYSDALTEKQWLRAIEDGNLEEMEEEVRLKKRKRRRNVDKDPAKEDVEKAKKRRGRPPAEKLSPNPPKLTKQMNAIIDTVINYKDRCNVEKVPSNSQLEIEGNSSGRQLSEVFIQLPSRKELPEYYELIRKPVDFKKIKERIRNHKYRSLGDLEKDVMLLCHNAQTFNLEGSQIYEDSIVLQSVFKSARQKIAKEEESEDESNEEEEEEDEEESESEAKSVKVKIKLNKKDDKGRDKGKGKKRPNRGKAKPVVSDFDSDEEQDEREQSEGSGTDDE
# T1 sequence (P51532 whole entry): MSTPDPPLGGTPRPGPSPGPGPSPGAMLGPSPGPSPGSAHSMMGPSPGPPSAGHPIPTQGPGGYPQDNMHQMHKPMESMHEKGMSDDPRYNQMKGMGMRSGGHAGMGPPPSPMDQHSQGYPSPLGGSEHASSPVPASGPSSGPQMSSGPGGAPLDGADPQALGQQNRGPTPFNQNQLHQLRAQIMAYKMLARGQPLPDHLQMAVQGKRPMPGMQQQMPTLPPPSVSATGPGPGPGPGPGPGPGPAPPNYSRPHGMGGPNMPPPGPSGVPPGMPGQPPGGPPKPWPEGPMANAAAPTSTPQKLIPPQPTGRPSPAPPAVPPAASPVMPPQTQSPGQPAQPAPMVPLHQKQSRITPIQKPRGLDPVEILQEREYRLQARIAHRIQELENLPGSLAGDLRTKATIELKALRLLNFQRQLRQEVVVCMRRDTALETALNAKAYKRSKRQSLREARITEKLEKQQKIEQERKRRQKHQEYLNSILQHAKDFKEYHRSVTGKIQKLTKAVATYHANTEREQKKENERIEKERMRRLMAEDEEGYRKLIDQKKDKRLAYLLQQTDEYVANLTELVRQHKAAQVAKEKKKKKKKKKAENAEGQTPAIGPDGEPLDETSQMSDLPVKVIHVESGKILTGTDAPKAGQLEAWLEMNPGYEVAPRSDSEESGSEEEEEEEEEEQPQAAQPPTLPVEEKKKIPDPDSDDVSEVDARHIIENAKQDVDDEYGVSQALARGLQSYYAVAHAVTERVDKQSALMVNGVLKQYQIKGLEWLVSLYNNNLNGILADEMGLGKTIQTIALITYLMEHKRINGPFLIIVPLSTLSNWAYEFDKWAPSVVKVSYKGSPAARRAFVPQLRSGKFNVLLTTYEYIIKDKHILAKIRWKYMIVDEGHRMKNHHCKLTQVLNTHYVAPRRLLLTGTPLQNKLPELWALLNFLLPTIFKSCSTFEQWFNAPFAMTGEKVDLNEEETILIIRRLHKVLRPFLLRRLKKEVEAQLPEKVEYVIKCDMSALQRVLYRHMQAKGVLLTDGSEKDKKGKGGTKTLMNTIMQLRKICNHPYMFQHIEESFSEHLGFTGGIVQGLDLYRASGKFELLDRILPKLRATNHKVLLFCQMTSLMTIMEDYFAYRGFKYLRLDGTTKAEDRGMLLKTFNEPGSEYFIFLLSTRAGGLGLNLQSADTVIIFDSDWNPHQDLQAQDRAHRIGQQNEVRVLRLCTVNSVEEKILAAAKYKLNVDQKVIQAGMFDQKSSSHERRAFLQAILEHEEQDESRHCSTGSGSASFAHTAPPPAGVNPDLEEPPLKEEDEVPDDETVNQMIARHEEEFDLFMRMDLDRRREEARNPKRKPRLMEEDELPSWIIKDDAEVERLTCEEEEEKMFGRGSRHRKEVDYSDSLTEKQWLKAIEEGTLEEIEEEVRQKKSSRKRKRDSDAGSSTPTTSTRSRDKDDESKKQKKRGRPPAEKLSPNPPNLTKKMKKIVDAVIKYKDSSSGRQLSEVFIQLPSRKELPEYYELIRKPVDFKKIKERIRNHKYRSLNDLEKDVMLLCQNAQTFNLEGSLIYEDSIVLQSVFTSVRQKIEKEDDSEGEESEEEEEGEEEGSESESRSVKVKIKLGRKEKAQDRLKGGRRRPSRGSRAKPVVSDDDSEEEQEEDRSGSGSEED
Structure (SMILES),Dmax (SMARCA4) [%],DC50 (SMARCA4) [µM],Dmax (SMARCA2) [%],DC50 (SMARCA2) [µM]
Cc1ncsc1-c1ccc(CNC(=O)[C@@H]2C[C@@H](O)CN2C(=O)[C@@H](NC(=O)CCCCN2CCC[C@@H](Cn3cc(-c4cc(-c5ccccc5O)nnc4N)cn3)C2)C(C)(C)C)cc1 [I-472],50 to 70,0.1 to 0.5,< 50,0.1 to 0.5
"NCC#Cc1cnc(N2C3CCC2CN(c2cc(-c4ccccc4O)nnc2N)C3)nc1 [I-535, 2-[6-amino-5-[8-[5-(3-aminoprop-1-ynyl)pyrimidin-2-yl]-3,8-diazabicyclo[3.2.1]octan-3-yl]pyridazin-3-yl]phenol]",< 50,< 0.1,< 50,> 1
Cc1ncsc1-c1ccc(CNC(=O)[C@@H]2C[C@@H](O)CN2C(=O)[C@@H](NC(=O)CN2CCCC(n3cc(-c4cc(-c5ccccc5O)nnc4N)cn3)C2)C(C)(C)C)cc1 (stereo partly shown) [I-452],< 50,0.1 to 0.5,< 50,> 1
"Cn1c(=O)n(C2CCC(=O)NC2=O)c2ccc(CCCCCCCCCNC(=O)c3cccc(C#Cc4cc(NC(=O)Nc5ccnc(Cl)c5)ccn4)c3)cc21 (stereo not shown) [I-301, 3-[2-[4-[(2-chloro-4-pyridyl)carbamoylamino]-2-pyridyl]ethynyl]-N-[9-[1-(2,6-dioxo-3-piperidyl)-3-methyl-2-oxo-benzimidazol-5-yl]nonyl]benzamide]",< 50,0.1 to 0.5,< 50,0.1 to 0.5
Cn1c(=O)n(C2CCC(=O)NC2=O)c2ccc(CC(=O)N3CCN(Cc4cnc(N5C6CCC5CN(c5cc(-c7ccccc7O)nnc5N)C6)nc4)CC3)cc21 (stereo not shown) [I-294],> 90,< 0.1,> 90,< 0.1
Cc1ncsc1-c1ccc(CNC(=O)[C@@H]2C[C@@H](O)CN2C(=O)[C@@H](NC(=O)CN2CCC(n3cc(-c4cc(-c5ccccc5O)nnc4N)cn3)CC2)C(C)(C)C)cc1 [I-457],70 to 90,0.1 to 0.5,70 to 90,0.501 to 1
Cc1ncsc1-c1ccc(CNC(=O)[C@@H]2C[C@@H](O)CN2C(=O)[C@@H](NC(=O)CCCCN2CCC(Cn3cc(-c4cc(-c5ccccc5O)nnc4N)cn3)CC2)C(C)(C)C)cc1 [I-468],< 50,0.1 to 0.5,< 50,> 1
Cc1ncsc1-c1ccc(CNC(=O)[C@@H]2C[C@@H](O)CN2C(=O)[C@@H](NC(=O)CN2CCC(c3cnc(N4CCN(c5cc(-c6ccccc6O)nnc5N)CC4)nc3)CC2)C(C)(C)C)cc1 [I-451],70 to 90,0.1 to 0.5,> 90,0.1 to 0.5
CN(CCCc1cnc(N2C3CCC2CN(c2cc(-c4ccccc4O)nnc2N)C3)nc1)Cc1cccc2c1n(C)c(=O)n2C1CCC(=O)NC1=O (stereo not shown) [I-299],> 90,< 0.1,> 90,< 0.1
Cc1ncsc1-c1ccc(CNC(=O)[C@@H]2C[C@@H](O)CN2C(=O)[C@@H](NC(=O)CN2CCC(Cn3cc(-c4cc(-c5ccccc5O)nnc4N)cn3)CC2)C(C)(C)C)cc1 [I-465],< 50,0.1 to 0.5,< 50,> 1
Cc1ncsc1-c1ccc(CNC(=O)[C@@H]2C[C@@H](O)CN2C(=O)[C@@H](NC(=O)CCCCN2CCN(Cc3ccc(-c4cc(-c5ccccc5O)nnc4N)cc3)CC2)C(C)(C)C)cc1 [I-476],50 to 70,0.1 to 0.5,< 50,0.1 to 0.5
Cn1c(=O)n(C2CCC(=O)NC2=O)c2ccc(CCC(=O)N3CCC(c4cnc(N5C6CCC5CN(c5cc(-c7ccccc7O)nnc5N)C6)nc4)CC3)cc21 (stereo not shown) [I-286],> 90,< 0.1,70 to 90,0.1 to 0.5
"Cn1c(=O)n(C2CCC(=O)NC2=O)c2ccc(CCN3CCN(C(=O)c4cnc(N5C6CCC5CN(c5cc(-c7ccccc7O)nnc5N)C6)nc4)CC3)cc21 (stereo not shown) [I-293, 3-(5-(2-(4-(2-(3-(3-amino-6-(2-hydroxyphenyl)pyridazin-4-yl)-3,8-diazabicyclo[3.2.1]octan-8-yl)pyrimidine-5-carbonyl)piperazin-1-yl)ethyl)-3-methyl-2-oxo-2,3-dihydro-1H-benzo[d]imidazol-1-yl)piperidine-2,6-dione]",> 90,< 0.1,> 90,< 0.1
Cn1c(=O)n(C2CCC(=O)NC2=O)c2cccc(C#CCN3CCCC(c4cnc(N5C6CCC5CN(c5cc(-c7ccccc7O)nnc5N)C6)nc4)C3)c21 (stereo not shown) [I-300],70 to 90,< 0.1,> 90,< 0.1
Cc1ncsc1-c1ccc(CNC(=O)[C@@H]2C[C@@H](O)CN2C(=O)[C@@H](NC(=O)CN2CCC[C@@H](Cn3cc(-c4cc(-c5ccccc5O)nnc4N)cn3)C2)C(C)(C)C)cc1 [I-469],50 to 70,0.1 to 0.5,< 50,0.1 to 0.5
Cn1c(=O)n(C2CCC(=O)NC2=O)c2ccc(CCCCNC(=O)Cc3cnc(N4C5CCC4CN(c4cc(-c6ccccc6O)nnc4N)C5)nc3)cc21 (stereo not shown) [I-296],70 to 90,< 0.1,> 90,< 0.1
"CN(Cc1cnc(N2C3CCC2CN(c2cc(-c4ccccc4O)nnc2N)C3)nc1)CC1CCN(c2ccc3c(c2)n(C)c(=O)n3C2CCC(=O)NC2=O)CC1 (stereo not shown) [I-282, 3-(5-(4-((((2-(3-(3-amino-6-(2-hydroxyphenyl)pyridazin-4-yl)-3,8-diazabicyclo[3.2.1]octan-8-yl)pyrimidin-5-yl)methyl)(methyl)amino)methyl)piperidin-1-yl)-3-methyl-2-oxo-2,3-dihydro-1H-benzo[d]imidazol-1-yl)piperidine-2,6-dione]",> 90,< 0.1,> 90,< 0.1
CN1C(=O)CCC(n2c(=O)n(C)c3cc(CCCN4CCC(c5cnc(N6C7CCC6CN(c6cc(-c8ccccc8O)nnc6N)C7)nc5)CC4)ccc32)C1=O (stereo not shown) [I-297],< 50,–,< 50,> 1
CN(CCCCCc1cnc(N2C3CCC2CN(c2cc(-c4ccccc4O)nnc2N)C3)nc1)Cc1ccc2c(c1)n(C)c(=O)n2C1CCC(=O)NC1=O (stereo not shown) [I-283],> 90,< 0.1,> 90,< 0.1
CN(CCCC#Cc1cnc(N2C3CCC2CN(c2cc(-c4ccccc4O)nnc2N)C3)nc1)Cc1ccc2c(c1)n(C)c(=O)n2C1CCC(=O)NC1=O (stereo not shown) [I-298],> 90,< 0.1,> 90,< 0.1
Cc1ncsc1-c1ccc(CNC(=O)[C@@H]2C[C@@H](O)CN2C(=O)[C@@H](NC(=O)CN2CCC(c3nccc(N4C5CCC4CN(c4cc(-c6ccccc6O)nnc4N)C5)n3)CC2)C(C)(C)C)cc1 [I-450],50 to 70,0.1 to 0.5,< 50,0.1 to 0.5
Cn1c(=O)n(C2CCC(=O)NC2=O)c2ccc(CCCN3CCCC(c4cnc(N5C6CCC5CN(c5cc(-c7ccccc7O)nnc5N)C6)nc4)C3)cc21 (stereo not shown) [I-289],50 to 70,< 0.1,70 to 90,< 0.1
Cc1ncsc1-c1ccc(CNC(=O)[C@@H]2C[C@@H](O)CN2C(=O)[C@@H](NC(=O)CCCCN2CCC(n3cc(-c4cc(-c5ccccc5O)nnc4N)cn3)CC2)C(C)(C)C)cc1 [I-460],< 50,0.1 to 0.5,< 50,0.1 to 0.5
